Consider 27 compounds from ChEMBL document CHEMBL1132822, “2,4,5-Trisubstituted imidazoles: novel nontoxic modulators of P-glycoprotein mediated multidrug resistance. Part 2” (Bioorg Med Chem Lett, 2000).

SMILES strings stand for the structures.

The target in data set [1] is ATP-dependent translocase ABCB1 (Homo sapiens, UniProt P08183). The data set is described as follows: Modulation of Pgp (P-glycoprotein) mediated multidrug resistance in CEM / VLB 1000 cell line. Format: functional, cell-based, CCRF-CEM. The following applies: read-out: ED50 (the source's name).
Data set [2] can be described thus: Half life in Dog plasma at a dosage 5 mg/kg after intravenous administration. In kind it is ADME, organism-based, Canis lupus familiaris. On the set-up: dose 5 mg/kg, route intravenous.
A short description of data set [3]: (§1) Oral bioavailability in dog (dose 10 mg/kg). In kind it is ADME, organism-based, Canis lupus familiaris. The following applies: in vivo.
For data set [4], the system named is Canis familiaris. Described as §1. Format: functional, organism-based. Particulars: Canis lupus familiaris.
The subject of data set [5] is Homo sapiens. The data set is described as follows: Compound concentration in plasma of healthy human (male) after 3-4h of 400 mg dose of compound given orally. Format: functional.

A word on the half-life: it is how long it takes for the measured level to halve. The low end stands for fast loss, the high end for slow loss.

Chain of ATP-dependent translocase ABCB1 (P08183 whole entry): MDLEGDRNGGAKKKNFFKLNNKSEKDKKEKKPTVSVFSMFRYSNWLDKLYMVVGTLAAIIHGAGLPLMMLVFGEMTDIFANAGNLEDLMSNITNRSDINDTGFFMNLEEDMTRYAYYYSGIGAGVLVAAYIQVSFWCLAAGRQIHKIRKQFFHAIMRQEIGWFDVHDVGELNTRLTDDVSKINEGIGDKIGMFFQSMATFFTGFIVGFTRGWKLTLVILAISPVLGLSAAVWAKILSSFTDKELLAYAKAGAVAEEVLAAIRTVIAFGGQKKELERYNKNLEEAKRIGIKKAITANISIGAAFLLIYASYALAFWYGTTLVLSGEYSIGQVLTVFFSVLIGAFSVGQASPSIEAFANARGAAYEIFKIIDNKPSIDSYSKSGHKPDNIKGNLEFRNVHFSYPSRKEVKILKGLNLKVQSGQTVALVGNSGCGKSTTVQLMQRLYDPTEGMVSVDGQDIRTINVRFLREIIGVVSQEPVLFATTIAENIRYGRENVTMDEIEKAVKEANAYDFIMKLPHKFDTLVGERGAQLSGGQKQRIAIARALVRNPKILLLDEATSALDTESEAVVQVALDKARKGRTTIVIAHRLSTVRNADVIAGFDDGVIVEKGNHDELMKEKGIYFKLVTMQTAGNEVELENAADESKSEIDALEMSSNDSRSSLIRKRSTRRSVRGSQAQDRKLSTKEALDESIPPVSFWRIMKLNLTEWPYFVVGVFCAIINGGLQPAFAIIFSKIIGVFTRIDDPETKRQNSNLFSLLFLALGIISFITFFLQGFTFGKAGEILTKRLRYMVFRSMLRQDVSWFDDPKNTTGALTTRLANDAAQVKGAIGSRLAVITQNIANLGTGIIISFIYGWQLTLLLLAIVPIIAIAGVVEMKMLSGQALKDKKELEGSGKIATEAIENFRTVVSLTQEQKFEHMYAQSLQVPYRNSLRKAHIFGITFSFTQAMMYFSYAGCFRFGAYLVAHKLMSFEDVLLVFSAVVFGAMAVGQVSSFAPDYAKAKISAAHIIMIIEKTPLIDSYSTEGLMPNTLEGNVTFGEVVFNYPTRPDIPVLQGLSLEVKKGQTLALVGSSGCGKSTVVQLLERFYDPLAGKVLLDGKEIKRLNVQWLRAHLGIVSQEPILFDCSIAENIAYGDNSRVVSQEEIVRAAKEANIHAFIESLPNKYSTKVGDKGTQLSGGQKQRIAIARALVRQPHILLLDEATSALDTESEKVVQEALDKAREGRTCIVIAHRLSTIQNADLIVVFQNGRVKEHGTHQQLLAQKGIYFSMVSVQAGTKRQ

Turning to `CNc1ccc(-c2[nH]c(-c3ccc(/C=C/C(=O)OC)cc3)nc2-c2ccc(NC(C)C)cc2)cc1`, the EC50 in data set [1] came out at 120 nM.

For the compound `CCCN(CCC)c1ccc(-c2c[nH]c(-c3ccc(/C=C/COCC)cc3)n2)cc1`, the EC50 in data set [1] was 280 nM. For `CNc1ccc(-c2[nH]c(-c3ccc(/C=C/CCOC)cc3)nc2-c2ccc(N(C)C)cc2)cc1`, the EC50 in data set [1] came to 110 nM. In the case of `COC(=O)/C=C/c1ccc(-c2nc(-c3ccc(N4CCCC4)cc3)c(-c3ccc(N4CCCC4)cc3)[nH]2)cc1`, the EC50 in data set [1] stood at 370 nM. In turn, `CCOC/C=C/c1ccc(-c2nc(-c3ccc(N(C)C)cc3)c(-c3ccc(N(C)C)cc3)[nH]2)cc1` gave a half-life in data set [2] of 0.5 h. Moreover, the EC50 in data set [1] was 80 nM. The bioavailability in data set [3] stood at 35%.

Consider `CNc1ccc(-c2[nH]c(-c3ccc(/C=C/C(=O)OC)cc3)nc2-c2ccc(N(C)C)cc2)cc1`, for which the EC50 in data set [1] was found to be 130 nM. `CCN(CC)c1ccc(-c2nc(-c3ccc(/C=C/C(=O)OC)cc3)[nH]c2-c2ccc(N(CC)CC)cc2)cc1`: the EC50 in data set [1] came to 570 nM. The same measure, in the same setting: the figure for `CCOCC/C=C/c1ccc(-c2nc(-c3ccc(NC)cc3)c(-c3ccc(N(CC)CC)cc3)[nH]2)cc1` is 60 nM; for `CCOC/C=C/c1ccc(-c2nc(-c3ccc(NC(C)C)cc3)c[nH]2)cc1` it is 340 nM.

In the case of `CCOC/C=C/c1ccc(-c2nc(-c3ccc(N4CCOCC4)cc3)c[nH]2)cc1`, the EC50 in data set [1] came out at 370 nM.

Consider `COC(=O)/C=C/c1ccc(-c2nc(-c3ccc(N)cc3)c(-c3ccc(N(C)C)cc3)[nH]2)cc1`, for which, in data set [1], the EC50 came to 590 nM. As to `C=CCN(CC=C)c1ccc(-c2nc(-c3ccc(/C=C/C(=O)OC)cc3)[nH]c2-c2ccc(N(CC=C)CC=C)cc2)cc1`, the EC50 in data set [1] turned out to be 5500 nM. `CCOC/C=C/c1ccc(-c2nc(-c3ccc(F)cc3)c(-c3ccc(NC(C)C)cc3)[nH]2)cc1` had a half-life in data set [2] of 1.27 h. For the same compound, in data set [1], the EC50 was found to be 160 nM. The compound further gave a bioavailability in data set [4] of 45%. As for `CCOC/C=C/c1ccc(-c2nc(-c3ccc(N(CC)CC)cc3)c(-c3ccc(N(CC)CC)cc3)[nH]2)cc1`, in data set [1], the EC50 was 260 nM. On the same count and under the same terms, the value for `COC(=O)/C=C/c1ccc(-c2nc(-c3ccc(N(C)C)cc3)c(-c3ccc(N(C)C)cc3)[nH]2)cc1` was 300 nM; that for `CCNc1ccc(-c2[nH]c(-c3ccc(/C=C/COCC)cc3)nc2-c2ccc(NC(C)C)cc2)cc1` was 50 nM. On to `CCOC/C=C/c1ccc(-c2nc(-c3ccc(NC(C)C)cc3)c(-c3ccc(NC)cc3)[nH]2)cc1`, for which, in data set [2], the half-life is 1.35 h. In data set [1], the EC50 was 50 nM. In data set [4], the bioavailability turned out to be 36%. With `CCOC/C=C/c1ccc(-c2nc(-c3ccc(N4CCOCC4)cc3)c(-c3ccc(N4CCOCC4)cc3)[nH]2)cc1`, in data set [1], the EC50 came out at 220 nM. In the case of `CCCN(CCC)c1ccc(-c2[nH]c(-c3ccc(/C=C/C(=O)OC)cc3)nc2-c2ccc(NC)cc2)cc1`, in data set [1], the EC50 was 180 nM. Regarding `CCOC/C=C/c1ccc(-c2nc(-c3ccc(NC)cc3)c(-c3ccc(N4CCCC4)cc3)[nH]2)cc1`, the EC50 in data set [1] was 150 nM. Regarding `CCCCN(CCCC)c1ccc(-c2[nH]c(-c3ccc(/C=C/C(=O)OC)cc3)nc2-c2ccc(NC)cc2)cc1`, in data set [1], the EC50 was determined as 2100 nM. Compound `CCOC/C=C/c1ccc(-c2nc(-c3ccc(NC(C)C)cc3)c(-c3ccc(NC(C)C)cc3)[nH]2)cc1` gave a half-life in data set [2] of 2.79 h. The Concentration in data set [5] was 3 µM. For the same compound, the EC50 in data set [1] is 50 nM. For the same compound, the bioavailability in data set [4] stood at 41%.

With `CNc1ccc(-c2nc(-c3ccc(/C=C/C(=O)OC)cc3)[nH]c2-c2ccc(NC)cc2)cc1`, the EC50 in data set [1] was found to be 200 nM. As for `CCOC/C=C/c1ccc(-c2nc(-c3ccc(NCC(C)C)cc3)c[nH]2)cc1`, in data set [1], the EC50 turned out to be 250 nM. On to `CCN(CC)c1ccc(-c2[nH]c(-c3ccc(/C=C/C(=O)OC)cc3)nc2-c2ccc(NC)cc2)cc1`, for which the EC50 in data set [1] was 70 nM. On to `CCN(CC)c1ccc(-c2[nH]c(-c3ccc(/C=C/C(=O)OC)cc3)nc2-c2ccc(N)cc2)cc1`, for which, in data set [1], the EC50 worked out at 310 nM. For the compound `CCOC/C=C/c1ccc(-c2nc(-c3ccc(N(CC)CC)cc3)c[nH]2)cc1`, in data set [1], the EC50 came out at 300 nM.
